Experimental data: PubChem BioAssay (NCI)
Several values for one entry are separate records, joined by “and”; a condition that tells them apart may be missing. Equal entries are not always repeated.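 A five-concentration, 48-hour dose response in 96-well plates underlies each endpoint, interpolated linearly between surrounding concentrations. GI50 = concentration required for 50% inhibition of growth. TGI marks complete inhibition of growth.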

How the values were obtained:
Test in all cases: NCI-60 cell line screen, 48 h
LOX IMVI melanoma = system: LOX IMVI melanoma
MALME-3M melanoma = system: MALME-3M melanoma
A498 renal = system: A498 renal
SW-620 colon = system: SW-620 colon
SK-MEL-28 melanoma = system: SK-MEL-28 melanoma
SF-295 CNS = system: SF-295 CNS
786-0 renal = system: 786-0 renal
HL-60(TB) leukemia = system: HL-60(TB) leukemia
NCI/ADR-RES ovarian = system: NCI/ADR-RES ovarian
BT-549 breast = system: BT-549 breast

Row | Compound | TGI (LOX IMVI melanoma) | TGI (MALME-3M melanoma) | TGI (A498 renal) | TGI (SW-620 colon) | TGI (SK-MEL-28 melanoma) | TGI (SF-295 CNS) | TGI (786-0 renal) | TGI (HL-60(TB) leukemia) | TGI (NCI/ADR-RES ovarian) | TGI (BT-549 breast) | GI50 (LOX IMVI melanoma) | GI50 (SW-620 colon) | GI50 (SF-295 CNS) | GI50 (786-0 renal) | GI50 (HL-60(TB) leukemia)
1 | CCCCN(CCCC)CC(C(=O)Nc1ccc([N+](=O)[O-])cc1[N+](=O)[O-])/C(C)=N\NC(=O)c1ccncc1 (stereo unspecified) | > 100 µM | > 100 µM | > 100 µM | > 100 µM | > 100 µM | > 100 µM | > 100 µM | > 100 µM |  |  |  |  |  |  | 
2 | C=C1C2CCCC1C1(S(C)(=O)=O)CCCCC21O (stereo unspecified) |  | > 100 µM |  | > 100 µM | > 100 µM | > 100 µM | > 100 µM |  |  |  |  |  |  |  | 
3 | NC(N)=NCCCC(Nc1c2ccccc2nc2ccccc12)C(=O)O (stereo unspecified) | > 100 µM | > 100 µM |  | > 100 µM | > 100 µM | > 100 µM | > 100 µM | > 100 µM |  |  |  |  |  |  | 
4 | O=C(CCl)N1CCN(c2ccccc2)CC1 |  | 42.8 µM | 47.2 µM | 54.3 µM | 35.7 µM | 36.2 µM | 29.3 µM | 41.2 µM | > 100 µM |  |  |  |  |  | 
5 | O=C1CCC2(c3ccccc3)OCC([C@@H](O)c3ccccc3)N12 (stereo partly specified) | > 100 µM | > 100 µM | > 100 µM | > 100 µM | > 100 µM | > 100 µM | > 100 µM |  |  |  |  |  |  |  | 
6 | Cc1[nH]c2ccccc2c1/C=C/c1c(C)[nH]c2ccccc12 |  | > 100 µM | > 100 µM | > 100 µM | > 100 µM | > 100 µM | > 100 µM | > 100 µM |  |  |  |  |  |  | 
7 | Nc1nc2c(ncn2C2OC(CO)C(O)C2O)c(=O)o1 (stereo unspecified) | > 100 µM | > 100 µM | > 100 µM | > 93.6 µM | > 100 µM | > 100 µM | > 100 µM | > 100 µM |  |  |  |  |  |  | 
8 | CN(C)Cc1ccc(O)c(CN(C)C)n1 | > 100 µM | > 100 µM | > 100 µM | > 100 µM | > 100 µM | > 100 µM | > 100 µM |  | > 100 µM | > 100 µM |  |  |  |  | 
9 | CC1CN1c1c(C(=O)/C=C/c2ccc(F)cc2)c(-c2ccccc2)nn(C)c1=O (stereo unspecified) | 26.9 µM | 30 µM |  | 32.7 µM | 32 µM | 30.2 µM | 29.2 µM | 43 µM |  |  |  |  |  |  | 
10 | Cc1cc(C)c([O-])c(-[n+]2c(-c3ccccc3)cc(-c3ccccc3)cc2-c2ccccc2)c1 | 11.1 µM | 16.7 µM |  | 15.7 µM | 14.2 µM | 17.1 µM | 19.7 µM | 4.16 µM |  |  |  |  |  |  | 
11 | COc1ccc(N=Nc2c(-c3ccccc3)nn(C(=O)CC(=O)Nc3ccc(OC)cc3)c2-c2ccccc2)cc1 | > 100 µM | > 100 µM | > 100 µM | > 100 µM | > 100 µM | > 100 µM | > 100 µM | > 100 µM |  |  |  |  |  |  | 
12 | COC1(OC)CCC2(C)OC(c3ccccc3)C1O2 (stereo unspecified) | > 100 µM | > 100 µM |  | > 100 µM | > 100 µM | > 100 µM | > 100 µM | > 100 µM |  |  |  |  |  |  | 
13 | COC(=O)C1=C(C)N(NC(N)=O)C2(N)N(NC(N)=O)C(C)=C(C(=O)OC)C12C#N (stereo unspecified) | > 100 µM | > 100 µM | > 100 µM | > 100 µM | > 100 µM | > 100 µM | > 100 µM | > 100 µM |  |  |  |  |  |  | 
14 | CN(C)CC1CCCC/C1=N\OC(=O)c1ccccc1 (stereo unspecified) | > 100 µM | > 100 µM | > 100 µM | > 100 µM | > 100 µM | > 100 µM | > 100 µM | > 100 µM |  |  |  |  |  |  | 
15 | COc1ccc(C(=O)C(c2ccc(OC)cc2)C2(O)C(=O)Nc3c(Cl)cc(Cl)cc32)cc1 (stereo unspecified) | 44 µM | 29.8 µM |  | 39.1 µM | 44.4 µM | 39.9 µM | 29 µM | 19.7 µM |  |  |  |  |  |  | 
16 | CC(C)(C)c1cc(Cc2ccc(S(C)(=O)=O)cc2)c(O)c(C(C)(C)C)c1 | 27.7 µM | 32.7 µM | 30.3 µM | 31.2 µM | 32 µM | 25.8 µM | 29.6 µM | 42 µM |  |  |  |  |  |  | 
17 | CC(=O)NNc1nc(C)c(C(=O)/C=C/c2ccc(N(C)C)cc2)s1 | > 100 µM | > 100 µM | > 100 µM | > 100 µM | > 100 µM | > 100 µM | > 100 µM | > 100 µM |  |  |  |  |  |  | 
18 | O=C1CC[C@@H](S(=O)(=O)c2ccccc2)[C@H](/C=C/c2ccccc2)O1 | > 100 µM | > 100 µM | > 100 µM | > 100 µM | > 100 µM | > 100 µM | > 100 µM | > 100 µM |  |  |  |  |  |  | 
19 | CCN(CC)CCN1C(=O)c2c(c3c4cccc(Cl)c4n(C4OC(CO)C(OC)C(O)C4O)c3c3[nH]c4c(Cl)cccc4c23)C1=O (stereo unspecified) |  |  |  |  |  |  |  |  |  | 1.66 µM | < 0.0001 µM | < 0.0001 µM | 0.000169 µM | < 0.0001 µM | 0.309 µM and 0.0366 µM
